Measurements as given in paper PMC9011347, “Small-Molecule Inhibitors Targeting Lipolysis in Human Adipocytes” (Journal of the American Chemical Society, 2022).

Target: T1, c5 (aa 1–111 of human ATGL) (Homo sapiens, UniProt Q96AD5, G146T/N133S/S158T)
T1 construct: host or cells: Expi293 cells, cell lysate
Experiment: TAG hydrolase assay, chimeric ATGL variants
Format: biochemical, human and mouse
Settings: variant c5, NG-497 (10 μM) or Atglistatin (10 μM)
Protocol: Figure 5 Analysis of chimeric proteins comprising human and mouse ATGL. (a) Schematic view of the minimal active domain of wild-type and chimeric ATGL variants (c1–c9). Nonidentical aa are indicated in blue and red for mouse and human ATGL, respectively. ATGL variants were expressed in Expi293 cells and TAG hydrolase activity was determined in cell lysates in the presence or absence of NG-497 (10 μM) and Atglistatin (10 μM), respectively. Inhibition of ATGL variants by respective inhibitors (tick mark) and lack of inhibition (cross) is indicated at the right edge. The expression of all ATGL variants was confirmed by Western blotting analysis (Figure S6). (b) Dose-dependent inhibition of human ATGL (aa 1–288) and c1 (human aa 1–158 and mouse aa 159–288) by NG-497. (c) Dose-dependent inhibition of mouse ATGL (aa 1–288) and c2 (mouse aa 1–158 and human aa 159–288) by Ai. IC50 values are shown in the insets. Data are presented as relative inhibition of respective DMSO controls and are indicated as mean ± SD. (d) 3D homology model of the minimal active domain of mouse ATGL (M1–L254) depicted as a cartoon. Residues 1–178 are in blue, and residues 179–254 are in gray. S47 and D166 comprising the active site are represented as green sticks. T101, C106, R109, N111, and S133 are colored in orange, A60, N68, I69, T93, C97, and T146 are colored in magenta. TEXT PRINTED IN THE PICTURE: (b) NG-497: IC50 [μM] (human): 1.3±0.1; IC50 [μM] (c1): 1.3±0.1 | (b) Ai: IC50 [μM] (human): n.det.; IC50 [μM] (c1): n.det. | (c) NG-497: IC50 [μM] (mouse): n.det.; IC50 [μM] (c2): n.det. | (c) Ai: IC50 [μM] (mouse): 2.5±0.3; IC50 [μM] (c2): 2.4±0.1 […]
We next generated variants by further stepwise humanization of c2. Variant c3 containing aa 1–23 of human ATGL was inhibited by Ai but not NG-497 (Figure 5a). […] Finally, variants of mouse ATGL containing aa 1–146 (c7) and 60–146 (c8) of human ATGL were inhibited by NG-497 but not Ai (Figure 5a).
Experimental details, materials, and methods
Expression of recombinant ATGL constructs and preparation of cell lysates. Expi293 cells were cultivated in Expi293 Expression Medium (GIBCO, Thermo Fisher Scientific, Waltham, USA) at standard conditions (37°C, 5% CO2, 95% humidified atmosphere, 125 rpm). DNA constructs containing ATGL from different species and chimeric ATGL variants in pcDNA3.1(+)myc-His C Vector were obtained from BioCat GmbH (Heidelberg, Germany). Cells were transfected with ExpiFectamine293 Transfection Kit (GIBCO) in Opti-Mem reduced serum medium (GIBCO) according to the manufacturer’s instructions. After 48 h, cells were harvested by centrifugation and washed three times with PBS. Cells were disrupted in buffer A (0.25 M sucrose, 1 mM EDTA, 1 mM dithiothreitol, 20µg/ml leupeptin, 2 µg/ml antipain, 1 µg/ml pepstatin, pH 7.0) by sonication (Virsonic 475, Virtis, Gardiner, USA). Nuclei and debris were removed by centrifugation at 1,000 g and 4°C for 10 min. Protein concentrations were determined using Bio-Rad protein assay (Bio-Rad 785, Bio-Rad Laboratories, Munich, Germany) using BSA as standard.
Expression and purification of mouse CGI-58. CGI-58 was expressed and purified as described 1. In brief, the coding sequence of mouse Cgi-58 was cloned into pHis-Sumo and co-transformed with the plasmid pTf16 expressing the chaperone Tig into E. coli BL21(DE3). Cells were cultured overnight at 37°C and 180 rpm in the presence of 40 µg/ml kanamycin and 34 µg/ml chloramphenicol. Thereafter, cells were transferred into fresh LB medium, grown until OD600 of 0.6, and expression was induced by the addition of 0.5 mM IPTG. After overnight incubation at 30°C, cells were harvested at 4,500 x g and 4°C for 20 min, washed in 1x PBS, and resuspended in lysis buffer (20 mM Tris/HCl pH 7.8, 300 mM NaCl, 30 mM imidazole, 0.1% IGEPAL CA-630, 3.5 mM β-mercaptoethanol, 20 µg/ml leupeptin, 2 µg/ml antipain and 1 µg/ml pepstatin). Cells were incubated with 1 […]

T1 sequence (Q96AD5 1-288 N133S/G146T/S158T): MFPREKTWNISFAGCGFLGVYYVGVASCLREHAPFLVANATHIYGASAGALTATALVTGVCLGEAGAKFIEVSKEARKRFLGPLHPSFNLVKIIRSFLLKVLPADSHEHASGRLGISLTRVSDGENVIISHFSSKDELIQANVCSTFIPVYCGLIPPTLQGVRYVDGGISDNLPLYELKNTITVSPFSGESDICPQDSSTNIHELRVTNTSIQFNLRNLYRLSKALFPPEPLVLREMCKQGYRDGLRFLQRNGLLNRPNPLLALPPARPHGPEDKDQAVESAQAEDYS

| Structure (SMILES) | inhibition of TAG hydrolase activity |
| --- | --- |
| CN(C)C(=O)Nc1cccc(-c2ccc(N(C)C)cc2)c1 [Atglistatin, reference compound] | neither inhibited |
| CCOc1ccc(-c2cc(OC)cc(C(=O)OC(C)C)n2)cc1 [NG-497] | neither inhibited |
